Results from publication PMC6627374, “Effects of the Pentapeptide P33 on Memory and Synaptic Plasticity in APP/PS1 Transgenic Mice: A Novel Mechanism Presenting the Protein Fe65 as a Target” (International Journal of Molecular Sciences, 2019).
Where a SMILES comes first, the peptide text is derived from it.

Test system: human APP
Experiment: Western blot, APP level in brain (6E10)
Assay type: in vivo, human APP in APP/PS1 transgenic mice
Conditions: APP/PS1 mice; 5 mg∙kg^−1 i.p., five days per week, six months; HC and CTX
Experimental: For this study, three-month-old male and female WT and APP/PS1 mice (n = 37) were used. Four groups were defined: WT-vehicle (physiological saline) (male n = 4; female n = 6), WT-P33 (male n = 6; female n = 5), APP/PS1-vehicle (male n = 3; female n = 5), and APP/PS1-P33 (male n = 6; female n = 2). Animals were subjected to intraperitoneal (i.p.) injections of P33 (5 mg∙kg^−1) for five days per week, over a course of six months. The mice were kept in groups under constant temperature (23 ± 0.5 °C), lighting (12-h/12-h light/dark cycle, lights on at 7:00 a.m.), and humidity (~50%). Standard mouse chow and tap water were supplied ad libitum. All behavioral experiments were performed in the light period. Handling was done daily at the same time.
Nine-month-old mice (three animals per group) were euthanized via cervical dislocation. […] To quantify the level of Aβ in the mice, we used a sandwich ELISA Kit (Innotest Amyloid-[…]) from Innogenetics (Gent, Belgium), following the instructions of the manufacturer. The absorbance values were measured at 450 nm on a 96-well plate reader (NOVOstar OPTIMA, BMG Labtech, Offenburg, Germany). […]
The results of spine density and immunohistochemistry experiments were calculated with one-way ANOVA followed by Fisher’s LSD post hoc tests. […] Data were analyzed with SPSS (IBM SPSS Statistics 24), and were expressed as the mean ± standard error of the mean (SEM). […]

Compound: C[C@@H](N)C(=O)N1CCC[C@@H]1C(=O)N[C@H](C)C(=O)N1CCC[C@@H]1C(=O)N[C@H](CCC(=O)O)C(N)=O [P33] (HELM PEPTIDE1{[dA].[dP].[dA].[dP].[dE].[am]}$$$$V2.0)
- APP level, effect of P33 (in words): did not change with the P33-treatment
